Marks after values point to notes of the source that are not given here.
Experiments:
[1] = system: corticosterone (CORT) induced aging rats; experiment: CORT-induced aging rats: body weight, serum and liver biochemistry, liver telomere length; type: in vivo, Wistar rats; settings: oral gavage daily 21 days, O-CP30/O-CP300 = 30/300 mg HED, NR 300 mg HED, mean ± SD
Procedure: Wistar rats (n=7 in each group; 8 weeks old) were used and animals were reared at the temperature of (22±2° C.), humidity (55±5%) and a 12/12 hour light/dark cycle. Pellet food and water were provided ad libitum. The experiment was conducted under the protocol approved by Firat University. Two control groups were taken for studies. The normal control group was given phosphate-buffered saline (PBS) and the CORT control was given corticosterone (CORT). Doses of O-CPs and NR were determined based on the Human Equivalent Dose (HED) for Drug Development according to Shin et al. (2010). Conversion of human doses to animal doses was based on body surface area. A conversion factor of 6.17 was used to convert human doses to rat doses. The human equivalent dose was 30 mg and 300 mg for O-CPs and 300 mg for nicotinamide riboside. CORT (Sigma-Aldrich Co., St. Louis, Mo., USA) was suspended in saline with 0.1% Tween 80% and 0.2% DMSO. Rats in groups 2-7 were injected daily with CORT (40 mg/kg) subcutaneously for 21 consecutive days. All injections were performed in a volume of 2 ml/kg body weight, between 7:00 and 7:10 p.m. The rats were dosed with study product involving various dosages of O-CPs, NR and their combination by oral gavage, which was administered daily for 21 days. Serum levels of glucose, triglycerides, cholesterol, aspartate aminotransferase (AST), alanine aminotransferase (ALT), urea, and creatinine were analyzed with a portable automated chemistry analyzer (Samsung LABGEO PT10, Samsung Electronics Co., Suwon, Korea). Total serum CORT levels, and levels of nicotinamide adenine dinucleotide (NAD+) and NAD+ precursors such as nicotinamide (Nam), tryptophan (Trp), nicotinic acid (Na) and nicotinamide mononucleotide (NMN) and NADPH were measured […] using a commercial kit following the manufacturer's instructions by ELISA (Elx-800, Bio-Tek Instruments Inc, Vermont, USA). Telomere length in the liver was determined by qPCR. Telomerase activity was measured according to the telomerase repeat amplification protocol using a Trapeze kit (Chemicon/Millipore, Billerica, Mass.). The levels of glutathione (GSH) and reactive oxygen species (ROS) in the rat liver were determined using the corresponding commercial ELISA kits (Wako Pure Chemical Industries) according to the manufacturer's instructions. Serum levels of malondialdehyde (MDA) were analyzed by High Performance Liquid Chromatography (HPLC). Antioxidant enzymes [superoxide dismutase (SOD), catalase (CAT), glutathione peroxidase (GSHPx)] were measured using the relevant commercial kits according to the enzyme-linked immunosorbent assay (ELISA, Elx-800, Bio-Tek Instruments Inc, Vermont, USA) method. The samples size of the study was determined to be totally 49 rats (n=7; 7 groups) with the help of G*Power package program (Version 3.1.9.2) with alpha error 0.05 and 90% power with effect size 0.7 calculated from previous studies. The data was analyzed using statistical analysis software (SPSS 17.0). In this study, conformity to the assumption of normality from the prerequisites of the parametric tests was performed using the “Shapiro-Wilk” test and the homogeneity of the variances were checked with the “Levene” test. Analysis of variance (ANOVA) test was performed to determine the differences between the groups and post-hoc Tukey test was used for multiple comparisons of the groups. Statistical significance was accepted as P<0.05.

[2] = system: LPS-induced pyrexia in mice; experiment: LPS-induced pyrexia in mice: serum biochemistry, liver and lung antioxidant enzymes, pyrexia; type: in vivo, BALB/c mice; settings: oral, 2 weeks before LPS, HED Se 200 μg, Zn 30 mg, O-CPs 300 mg, mean ± SD; for ALP / ALT / AST / BUN / Creatine / LDH / T Bilirubin: serum
Procedure: Six-week-old male BALB/c mice was purchased from the Firat University Experimental Animal Center. All mice were ad libitum access to standard rodent chow and water during the study. Mice were housed in cages throughout the study. The following conditions were maintained: temperature, 22±2° C.; relative humidity, 55±5%; and a 12-hours light: dark cycle. The care and treatment of the animals were in accordance with the guidelines established by the Use of Laboratory Animals and were approved by the Animal Care and Use Committee of Firat University. Two control groups were taken for studies. The normal control group was given PBS and the other control was given lipopolysaccharides (LPS) along with a vehicle, i.e., phosphate buffered saline. Forty-two mice were randomly divided into 6 treatment groups with 7 mice in each group as follows: Selenomethionine, zinc picolinate and O-CPs or vehicle were orally administered 2 weeks before LPS treatment. Control mice received 50 μL of PBS. Subsequently, rats in Groups 2 through 6 received LPS (0.04 mg/kg i.p.) 30 min after active treatment with Se, ZnPic, and O-CPs. Basal temperature readings for all treatments and LPS injections were done between 8.00 and 9.00 GMT to avoid temperature differences due to circadian rhythm. The change in rectal temperature in all rats were recorded 30 min after PBS or LPS injection and at subsequent 30 min intervals for 4 hours. After 6 hours of LPS treatment, the mice were euthanized and their blood, liver and lungs were collected for further analysis. Doses of selenomethionine, zinc picolinate and O-CPs were determined based on the Human Equivalent Dose (HED) for Drug Development according to Shin et al. (2010). Conversion of human doses to animal doses were based on body surface area. A conversion factor of 12.33 was used to convert human doses to mouse doses. The human equivalent dose was 200 μg of selenium (Se) from selenomethionine, 30 mg of zinc (Zn) from zinc picolinate and 300 mg of O-CPs. Selenomethionine dose: 200 μg/70 kg=2.86 μg/kg/day human*12.33=35.23 μg/kg/day per mouse; Zinc picolinate (20%) dose: 30 mg/70 kg=0.428 mg/kg/day human*12.33=5.28 elemental zinc mg/kg/day mouse=5.28*100/20=26.4 mg/kg/day per mouse; O-CPs dose: 300 mg/70 kg=4.29 mg/kg/day human*12.33=52.84 mg/kg/day per mouse. Serum levels of glucose, triglycerides, cholesterol, aspartate aminotransferase (AST), alanine aminotransferase (ALT), urea, and creatinine were analyzed with a portable automated chemistry analyzer (Samsung LABGEO PT10, Samsung Electronics Co., Suwon, Korea). Serum levels of MDA were analyzed by HPLC. Antioxidant enzymes (SOD, CAT, GSHPx) were measured using the relevant commercial kits according to the enzyme-linked immunosorbent assay (ELISA, Elx-800, Bio-Tek Instruments Inc, Vermont, USA) method. Serum, zinc and selenium levels in liver and lung were detected by atomic absorption spectroscopy (AAS). The samples size of the study was 42 mice (n=7; 6 groups) and analyzed with the help of G*Power package program (Version 3.1.9.2) with alpha error 0.05 and 85% power with effect size 0.65 calculated from previous studies. The data was analyzed using statistical analysis software (SPSS 17.0). In this study, conformity to the assumption of normality from the prerequisites of the parametric tests was performed using the “Shapiro-Wilk” test and the homogeneity of the variances were checked with the “Levene” test. Analysis of variance (ANOVA) test was performed to determine the differences between the groups and post-hoc Tukey test was used for multiple comparisons of the groups. Statistical significance was accepted as P<0.05.

Row | Molecule | Liver, CAT [2] | Liver, GSHPx [2] | Liver, MDA [2] | Liver, SOD [2] | Lung, CAT [2] | Lung, GSHPx [2] | Lung, MDA [2] | Lung, SOD [2] | ALP [2] | ALT [2] | AST [2] | BUN [2] | Creatine [2] | LDH [2] | T Bilirubin [2] | further results
1 | NC(=O)c1ccc[n+]([C@@H]2O[C@H](CO)[C@@H](O)[C@H]2O)c1 [NR, nicotinamide riboside] |  |  |  |  |  |  |  |  |  |  |  |  |  |  |  | Liver GSH ([1]; liver): 33.25 ± 2.07^bc U/mg protein; Liver NADPH ([1]; liver): 44.42 ± 2.31^c nmol/g; Liver Nicotinamide (Nam) ([1]; liver): 1.60 ± 0.06^c μmol/g; Liver Nicotinamide adenine dinucleotide NAD+ ([1]; liver): 0.59 ± 0.04^c μmol/g; Liver Nicotinamide mono nucleotide (NMN) ([1]; liver): 0.30 ± 0.02^bc μmol/g; Liver Nicotinic acid (Na) ([1]; liver): 1.63 ± 0.09^abc μmol/g; CORT [1]: 102.16 ± 8.68^a ng/ml; Final Body Weight [1]: 222.86 ± 23.11^b g; GLU ([1]; serum glucose): 119.86 ± 7.10^ab mg/dl; ALT ([1]; serum): 98.00 ± 5.55 U/L; AST ([1]; serum): 114.71 ± 10.92 U/L; BUN ([1]; serum): 22.90 ± 1.87 mg/dL; CAT ([1]; serum): 114.69 ± 4.82^d U/ml; Creatine ([1]; serum): 0.37 ± 0.08; GSH-Px ([1]; serum): 26.28 ± 1.98^d U/ml; MDA ([1]; serum): 1.74 ± 0.07^b nmol/ml; SOD ([1]; serum): 61.36 ± 4.5^e U/ml
2 | C[Se]CC[C@H](N)C(=O)O [Se, selenomethionine] | 41.89 ± 4.03^c U/mg | 44.79 ± 3.86^c U/mg | 5.86 ± 0.26^b nmol/mL | 95.16 ± 5.06^b U/mg | 32.29 ± 1.86^b U/mg | 33.86 ± 3.41^b U/mg | 6.67 ± 0.49^b nmol/mL | 59.32 ± 4.81^b U/mg | 285.43 ± 10.33^b IU/L | 261.57 ± 16.16^bc IU/L | 573.43 ± 59.23^b IU/L | 34.36 ± 3.26^b mg/dL | 0.59 ± 0.08^ab mg/dL | 192.11 ± 10.72^c IU/L | 0.95 ± 0.08^b mg/dL | 
3 | zinc picolinate [Zn] | 43.06 ± 3.24^c U/mg | 36.86 ± 1.98^d U/mg | 5.92 ± 0.35^b nmol/mL | 75.94 ± 5.93^c U/mg | 28.53 ± 1.70^c U/mg | 28.08 ± 1.98^c U/mg | 6.83 ± 0.30^b nmol/mL | 50.36 ± 2.93^c U/mg | 292.71 ± 15.34^ab IU/L | 280.43 ± 8.85^b IU/L | 580.86 ± 32.61^b IU/L | 35.57 ± 3.20^ab mg/dL | 0.59 ± 0.06^ab mg/dL | 216.13 ± 11.39^b IU/L | 0.97 ± 0.08^b mg/dL | 
